Measured values as given in patent US20020064770A1, “Binding compounds and methods for identifying binding compounds” (priority 2000, published 2002).

Key:
CCR5 [1] = target: T1, CCR5 (Homo sapiens, UniProt P51681); conditions: CCR5-expressing Chinese hamster ovary cells; cited from earlier work
CCR5 [2] = target: T1, CCR5; design: endogenous in cells; host or cells: monocytes; conditions: cited from earlier work
T-cell line-tropic HIV-1 = conditions: cited from earlier work
R5 HIV-1 = conditions: clinical isolates and a laboratory strain; peripheral blood mononuclear cells; cited from earlier work
M-tropic HIV-1 strains = conditions: cited from earlier work
CCR5 [3] = target: T1, CCR5; design: endogenous in cells; host or cells: monocytes; conditions: monocytes; cited from earlier work
CCR5 [4] = assay: Binding affinity of identified peptide ligands for CCR5 (displacement of [125I]-MIP-1β); design: species or system human
Excerpt: In order to determine those ligands that had the highest affinity to the target receptor, generally, over 200 peptide libraries were screened to determine each library's respective inhibition binding. […] In additional aspects of the invention, once preferred amino acid residues are identified due to high preference values by CCR5 at the degenerate positions of the library, specific peptides are synthesized by the same methods as employed for library synthesis. In one embodiment of the invention, a high preference value is greater than 1. The value is determined by subtracting the control value from the sample value and dividing by the reference value. In a preferred embodiment of the invention, the preference value is greater than 1.2. In a highly preferred embodiment of the invention, the preference value is greater than 2. After synthesis of the identified peptide sequence, the peptide is purified by, for example, High Performance Liquid Chromatography (“HPLC”) and compositions are confirmed by Matrix-Assisted Laser Desorption Ionization-Time of Flight Mass Spectrometer (“MALDI-TOF MS”) and Edman Sequencing. Generally, relative affinities may be measured by modifying the radiolabel binding assay used in receptor purification.
Relative affinities were measured by modifying the radiolabel binding assay used in receptor purification.

PDZ = conditions: binding domain PDZ; cited from earlier work
SH2 (src) = target: T2, SH2 (src) (Homo sapiens, UniProt P12931); conditions: binding domain SH2 (src); cited from earlier work
T2 construct: SH2 (src)

14-3-3 = conditions: binding domain 14-3-3; cited from earlier work
CCR5 [5] = conditions: value obtained by Receptor Biology; applicant's membrane preparations comparable; read-out: Kd for MIP1-β binding; cited from earlier work

T1 sequence (P51681 whole entry): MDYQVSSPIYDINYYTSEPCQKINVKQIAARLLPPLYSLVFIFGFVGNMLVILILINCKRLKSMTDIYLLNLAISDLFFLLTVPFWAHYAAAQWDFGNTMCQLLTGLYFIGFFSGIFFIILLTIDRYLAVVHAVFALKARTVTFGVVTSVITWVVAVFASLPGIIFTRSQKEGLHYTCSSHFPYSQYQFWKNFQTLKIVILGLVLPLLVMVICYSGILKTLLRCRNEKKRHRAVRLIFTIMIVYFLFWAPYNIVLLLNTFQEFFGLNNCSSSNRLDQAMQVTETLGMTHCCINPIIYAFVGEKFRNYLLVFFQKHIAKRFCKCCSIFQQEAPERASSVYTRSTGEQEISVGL

Cc1ccc(-c2ccc3c(c2)C=C(C(=O)Nc2ccc(C[N+](C)(C)C4CCOCC4)cc2)CCC3)cc1.[Cl-] [TAK-779]
antagonism of RANTES binding to CCR5 (CCR5 [1]): antagonizes | concentration blocking CCR5-mediated Ca2+ signaling (CCR5 [2]): nanomolar | activity against T-cell line-tropic HIV-1 (T-cell line-tropic HIV-1): inactive | concentration inhibiting replication of R5 HIV-1 (R5 HIV-1): 1.6 to 3.7 nM

Aminooxypentane (AOP)-RANTES[2-68]
inhibition of infection of macrophages (M-tropic HIV-1 strains): potently inhibits | antagonist potency on CCR5 function (CCR5 [3]): subnanomolar

K-K-K-A-R-S-L-I-W-R-P-A-K-A-K-K-K (KKKARSLIWRPAKAKKK)
affinity and action on CCR5 (CCR5 [4]): enhanced affinity and action

KKKKETDV
Kd (PDZ): 42 nM

M-A-R-S-L-I-W-R-P-A-K-A-K-K-A (MARSLIWRPAKAKKA)
affinity and action on CCR5 (CCR5 [4]): enhanced affinity and action

PYBEIY
Kd (SH2 (src)): 100 nM

RLSHpSLP
Kd (14-3-3): 55.7 nM

cyclo(M-Y-A-T-R-W-K-N) (MYATRWKN; cyclic)
affinity and action on CCR5 (CCR5 [4]): enhanced affinity and action

B1: MIP-1β: natural CCR5 ligand, used as [125I] radioligand (protein, UniProt P13236 24-92, looked up)
C-C motif chemokine 4: APMGSDPPTACCFSYTARKLPRNFVVDYYETSSLCSQPAVVFQTKRSKQVCADPSESWVQEYVYDLELN
modifications: ends and bridges not checked; also: [125I] radiolabel
Kd (CCR5 [5]): < 1 nM
